Source: patent US20230055657A1, “COMBINATION TREATMENT OF LIVER DISEASES USING INTEGRIN INHIBITORS” (NOVARTIS AG, priority 2019, published 2023)
“Also recorded” adds a separate entry of the source.

Legend:
[1] = test system: murine CCl4 model of liver fibrosis; assay: 3-week murine CCl4 model of liver fibrosis; type: in vivo, mouse
Method: Antifibrotic activity of Compound 1 was established in an abbreviated, 3-week, murine CCl4 model of liver fibrosis. CCl4 is a hepatotoxin that when injected into mice results in liver fibrosis (Constandinou 2003). Compound 1 was dosed during the final week of injury.

[2] = test system: CDAHFD NASH mouse model; assay: CDAHFD NASH mouse model (prophylactic, therapeutic and 10-week studies); type: in vivo
Method: CDAHFD injury is a rodent model of NASH displaying liver fat accumulation, inflammation, and fibrosis (Matsumoto 2013). Three types of studies were performed: 1) prophylactic, Compound 1 in an abbreviated 3-week CDAHFD model; 2) therapeutic, Compound 1 for 6 weeks in the 11- to 12-week CDAHFD model; and 3) Compound 1 for 4 weeks in a 10-week CDAHFD model.
Compound 1 was tested therapeutically in 11- to 12-week CDAHFD injury studies at medium, high and highest doses across 3 independent studies.
Although pan-αv inhibition with CWHM12 reduced pSMAD and OHP levels, selective αvβ1 inhibition was sufficient for antifibrotic activity.

[3] = test system: healthy volunteers; assay: First-in-human study of safety, tolerability, PK and PD; type: in vivo; conditions: single and multiple ascending dose, thus far
From the text: Part A (Single Ascending Dose Study) Part A of the study was a first-in-human, randomized, double-blind, placebo-controlled, parallel-group, single ascending dose study of the safety, tolerability, and PK of Compound 1 in a maximum of 50 healthy male and female (non-childbearing potential) participants. Forty participants will be enrolled in up to 5 sequential cohorts.
Part B (Multiple Ascending Dose Study) Part B of the study is on-going and was initiated after the first 2 cohorts in Part A of the study had been completed. The doses in Part B were determined from Part A of the study and were not higher than the highest dose that was administered in Part A of the study.
Part B of the study is a randomized, double-blind, placebo-controlled, parallel-group, multiple ascending dose study of the PK, PD, safety, and tolerability of Compound 1 administered for 7 days in a maximum of 40 healthy male and female (non-childbearing potential) participants.

[4] = test system: human cirrhotic NASH precision cut liver slices; assay: Profibrotic gene expression and fibrosis biomarkers in precision cut liver slices; type: cell-based
Method: The ability of Compound 1 to inhibit the expression of profibrotic genes and decrease biomarkers of fibrosis was measured in precision cut liver slices generated using cirrhotic liver tissues from NASH patient explants and from rodent models of liver fibrosis and NASH.
Data are mean +/−standard deviation from the 5 cirrhotic NASH patients. DMSO was used as the solvent and utilized at a constant concentration (0.1%) across the different groups. […] was used as a positive control.

[5] = therapeutic, 11- to 12-week, high and highest doses

Structure (SMILES) | hepatic Col1α1, Col1α1, and Col3α1 expression ([1]; all doses) | levels of pSMAD3/SMAD3 in the liver ([1]; all doses, dosed during final week of injury) | antifibrotic activity ([1]; liver fibrosis (CCl4)) | antifibrotic activity ([2]; NASH (CDAHFD)) | expression of Ehhadh ([2]; prophylactic, 3-week, high dose, both studies) | gene expression of collagens ([2]; prophylactic, 3-week, high dose, one of the studies) | collagen area (histological analysis) ([2]; therapeutic, 11- to 12-week) | composite fibrosis score (second harmonic generation imaging): quantity and quality of collagen fibers ([2]; therapeutic, 11- to 12-week) | gene expression of Acox1 and Ehhadh ([2]; therapeutic, 11- to 12-week) | collagen gene expression (Col1α1 and Col3α1) [2, 5] | gene expression of profibrotic markers Ctgf, Mmp-2 and Timp1 [2, 5] | tolerability [3] | TIMP1 gene expression (in words) ([4]; 5 cirrhotic NASH patient explants, after two days of treatment) | COL1A1 gene expression (in words) ([4]; fibrotic liver tissue from 5 patients with NASH) | reduction of level of FBN-C in culture media ([4]; significant) | reduction of OHP concentrations ([2]; 10-week CDAHFD study) | reduction of pSMAD3 levels ([2]; 10-week CDAHFD study)
CC1(C(=O)N[C@@H](CCCCCCCc2ccc3c(n2)NCCC3)C(=O)O)CCOCC1 [Compound 1, (S)-2-(4-methyltetrahydro-2H-pyran-4-carboxamido)-9-(5,6,7,8-tetrahydro-1,8-naphthyridin-2-yl)nonanoic acid] | significant reduction; also recorded: significantly reduced | significantly reduced | potent and dose-dependent antifibrotic activity | effective antifibrotic agent; also recorded: potent and dose-dependent antifibrotic activity | significantly elevated | Significantly reduced | significant reduction | significant reduction | significantly increased | significantly reduced | significantly reduced | well tolerated | reduced; also recorded: decreased expression; also recorded: reduces expression | decreased expression; also recorded: reduces expression | 26% |  | 
CC(C)(C)c1cc(Br)cc([C@H](CC(=O)O)NC(=O)CNC(=O)c2cc(O)cc(NC3=NCC(O)CN3)c2)c1 (stereo partly drawn) [CWHM12, (3S)-N-[3-hydroxy-5-[(1,4,5,6-tetrahydro-5-hydroxy-2-pyrimidinyl)amino]benzoyl]glycyl-3-[3-bromo-5-(1,1-dimethylethyl)phenyl]β-alanine, reference compound] |  |  |  |  |  |  |  |  |  |  |  |  |  |  |  | 30% | 61%
